Broadly, the bioavailability is dose-corrected exposure relative to a reference, in per cent. For orientation: pIC50 means the IC50 on a negative log10 scale, so that one unit is a factor of ten. The term pKi denotes −log10 of the Ki, conventionally taken in molar units. Read a high pKi as a low Ki. In general, AUC(0-inf) refers to total exposure, with the tail of the curve extrapolated. Usually Cmax stands for the maximum level reached in the sampled fluid or tissue. What is called half-life is how long it takes for the measured level to halve. As usually defined, the AUC(0-t) is the area under the concentration-time curve up to a stated or last time point. A word on the Tmax: it is the time from dosing to the highest level.

Experimental findings from patent US10442815B2, “Tricyclic heterocyclic compounds as phosphoinositide 3-kinase inhibitors” (Karus Therapeutics Limited, priority 2015, dated 2019) are described below.

Data set [1] in a line: Plasma PK of comparative compound without sulfur moiety in male CD1 mice. The data set is classed as in vivo, mouse. The following applies: Mesylate Salt. On the procedure:
Formulation: 10% DMSO, 90% Saline
Dosing: 10 mg/kg P.O. and 5 mg/kg I.V.

Data set [2] has as its target T1, PI3K p110δ (Homo sapiens, UniProt O00329).
T1 construct: assay run at Proqinase GmbH
The data set can be described thus: IC50 determination, HTRF biochemical assay (Reaction Biology Corp.). The text has this:
(§1) Biochemical activity against class I PI3K isoforms was confirmed by either Ki determination using the non-radiometric ADP-Glo™ assay (Promega, Madison, Wis., USA) at Proqinase GmbH, or IC50 determination using the HTRF biochemical assay at Reaction Biology Corp.
(In general: In TR-FRET formats the signal depends on donor and acceptor labels being close together.)

Data set [3] addresses T2, PI3K p110β (Homo sapiens, UniProt P42338).
T2 construct: assay run at Proqinase GmbH
The data set is described as above.
Excerpt: as §1

Data set [4] addresses T3, PI3K p110α (Homo sapiens, UniProt P42336).
T3 construct: assay run at Proqinase GmbH
The data set is described as above.
Excerpt: as §1

For data set [5], the target named is T4, PI3K p110γ (Homo sapiens, UniProt P48736).
T4 construct: assay run at Proqinase GmbH
Described as above.
Excerpt: as §1

Data set [6] has as its target T1, PI3K p110δ. Description: Ki determination, non-radiometric ADP-Glo assay (Proqinase GmbH). Format: biochemical.
Excerpt: as §1

Data set [7] has as its target T2, PI3K p110β. The data set is described as above. Format: biochemical.
Excerpt: as §1

The target in data set [8] is T3, PI3K p110α. Described as above. The data set is classed as biochemical.
Excerpt: as §1

For data set [9], the target named is T4, PI3K p110γ. The data set is described as above. The data set is classed as biochemical.
Excerpt: as §1

Data set [10] in a line: Plasma PK of Example B, oral bioavailability and clearance in male Balb/c mice. Format: in vivo, mouse. The following applies: Mesylate Salt. On the procedure:
Animals in Group 2 were administered with oral solution formulation of Example B in 5% NMP, 5% Solutol HS and 90% of 20% HPβCD at a dose of 10 mg/kg. Dosing: 10 mg/kg P.O. and 3 mg/kg I.V.

[11] abbreviates: IV, 5 mg/kg, male CD1 mouse plasma.
[12] abbreviates: IV, 3 mg/kg, male Balb/c mouse plasma.
The mark [13] stands for this setting: PO, 10 mg/kg, male Balb/c mouse plasma.

pIC50, pKi: −log10 of the molar value.

T2 sequence (P42338 whole entry): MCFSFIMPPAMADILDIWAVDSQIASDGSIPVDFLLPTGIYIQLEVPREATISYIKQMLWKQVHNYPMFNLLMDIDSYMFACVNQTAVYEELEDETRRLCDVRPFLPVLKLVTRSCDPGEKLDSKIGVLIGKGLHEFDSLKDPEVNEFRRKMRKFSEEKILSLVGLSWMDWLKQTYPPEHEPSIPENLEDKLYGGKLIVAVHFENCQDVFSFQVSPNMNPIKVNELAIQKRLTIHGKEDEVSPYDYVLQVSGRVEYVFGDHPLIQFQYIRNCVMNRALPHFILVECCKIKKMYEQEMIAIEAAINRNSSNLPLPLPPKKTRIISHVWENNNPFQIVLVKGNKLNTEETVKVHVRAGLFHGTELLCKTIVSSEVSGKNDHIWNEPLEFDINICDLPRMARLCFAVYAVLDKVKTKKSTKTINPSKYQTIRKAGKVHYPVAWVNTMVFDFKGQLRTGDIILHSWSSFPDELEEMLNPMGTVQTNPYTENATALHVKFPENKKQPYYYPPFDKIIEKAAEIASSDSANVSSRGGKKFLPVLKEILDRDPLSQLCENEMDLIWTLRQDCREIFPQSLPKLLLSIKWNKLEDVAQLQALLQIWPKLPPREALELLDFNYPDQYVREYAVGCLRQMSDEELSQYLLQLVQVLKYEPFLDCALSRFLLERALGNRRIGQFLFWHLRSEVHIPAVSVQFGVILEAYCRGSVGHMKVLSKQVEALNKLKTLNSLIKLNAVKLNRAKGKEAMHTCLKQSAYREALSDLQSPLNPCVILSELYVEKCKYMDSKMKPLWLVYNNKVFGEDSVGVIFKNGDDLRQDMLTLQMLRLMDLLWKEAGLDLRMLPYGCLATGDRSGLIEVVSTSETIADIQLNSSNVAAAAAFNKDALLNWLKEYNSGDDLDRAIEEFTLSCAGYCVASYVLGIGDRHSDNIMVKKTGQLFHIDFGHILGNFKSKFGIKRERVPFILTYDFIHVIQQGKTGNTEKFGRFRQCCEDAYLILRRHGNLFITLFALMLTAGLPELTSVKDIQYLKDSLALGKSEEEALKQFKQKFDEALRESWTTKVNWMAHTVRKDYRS
T2 sequence (P27986 whole entry partner): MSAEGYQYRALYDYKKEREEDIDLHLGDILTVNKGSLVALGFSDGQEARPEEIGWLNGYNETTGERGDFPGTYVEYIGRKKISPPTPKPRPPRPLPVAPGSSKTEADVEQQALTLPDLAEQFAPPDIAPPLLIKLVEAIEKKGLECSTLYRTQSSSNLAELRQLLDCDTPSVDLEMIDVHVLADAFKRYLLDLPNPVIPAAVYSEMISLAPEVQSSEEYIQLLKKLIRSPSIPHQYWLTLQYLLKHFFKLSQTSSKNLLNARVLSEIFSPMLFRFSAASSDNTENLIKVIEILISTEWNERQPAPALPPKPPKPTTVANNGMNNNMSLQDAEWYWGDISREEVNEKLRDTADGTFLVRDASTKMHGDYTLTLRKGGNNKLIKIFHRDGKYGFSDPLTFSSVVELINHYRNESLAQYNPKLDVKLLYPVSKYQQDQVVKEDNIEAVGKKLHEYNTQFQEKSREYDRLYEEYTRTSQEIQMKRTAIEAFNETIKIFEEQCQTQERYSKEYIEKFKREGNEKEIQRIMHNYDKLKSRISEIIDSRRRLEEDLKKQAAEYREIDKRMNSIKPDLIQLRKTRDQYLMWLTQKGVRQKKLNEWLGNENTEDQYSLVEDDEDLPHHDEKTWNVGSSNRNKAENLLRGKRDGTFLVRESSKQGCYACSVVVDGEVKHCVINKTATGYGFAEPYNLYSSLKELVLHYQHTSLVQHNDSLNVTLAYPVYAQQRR
T3 sequence (P42336 whole entry): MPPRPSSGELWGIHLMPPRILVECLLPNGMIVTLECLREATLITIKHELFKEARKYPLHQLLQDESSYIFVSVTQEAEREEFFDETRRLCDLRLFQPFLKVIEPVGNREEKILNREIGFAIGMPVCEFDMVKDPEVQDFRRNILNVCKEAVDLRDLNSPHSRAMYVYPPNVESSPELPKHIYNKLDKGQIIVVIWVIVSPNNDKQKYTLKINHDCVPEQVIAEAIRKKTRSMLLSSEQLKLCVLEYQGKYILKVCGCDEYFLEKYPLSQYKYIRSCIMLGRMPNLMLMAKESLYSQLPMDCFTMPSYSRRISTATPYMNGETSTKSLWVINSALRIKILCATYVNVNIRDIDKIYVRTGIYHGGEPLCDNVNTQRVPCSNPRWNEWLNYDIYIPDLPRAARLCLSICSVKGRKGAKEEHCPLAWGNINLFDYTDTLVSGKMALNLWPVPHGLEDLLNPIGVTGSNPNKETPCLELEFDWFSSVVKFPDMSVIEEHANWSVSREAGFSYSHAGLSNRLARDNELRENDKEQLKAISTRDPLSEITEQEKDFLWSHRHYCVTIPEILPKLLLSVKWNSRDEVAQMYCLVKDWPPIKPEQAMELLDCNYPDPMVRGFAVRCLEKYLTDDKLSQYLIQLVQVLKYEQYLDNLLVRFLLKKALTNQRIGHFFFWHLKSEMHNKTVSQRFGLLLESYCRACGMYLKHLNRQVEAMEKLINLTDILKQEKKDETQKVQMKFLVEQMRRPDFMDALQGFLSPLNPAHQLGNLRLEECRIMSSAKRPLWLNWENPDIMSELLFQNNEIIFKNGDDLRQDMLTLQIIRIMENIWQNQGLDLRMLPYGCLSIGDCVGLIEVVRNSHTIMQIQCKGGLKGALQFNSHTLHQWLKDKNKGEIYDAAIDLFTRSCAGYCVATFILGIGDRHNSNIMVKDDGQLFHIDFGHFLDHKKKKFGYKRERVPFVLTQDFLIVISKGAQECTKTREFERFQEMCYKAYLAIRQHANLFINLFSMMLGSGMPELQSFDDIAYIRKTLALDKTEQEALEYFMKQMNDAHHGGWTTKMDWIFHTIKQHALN
T3 sequence (P27986 whole entry partner): as the sequence (P27986 whole entry partner) above
T1 sequence (O00329 whole entry): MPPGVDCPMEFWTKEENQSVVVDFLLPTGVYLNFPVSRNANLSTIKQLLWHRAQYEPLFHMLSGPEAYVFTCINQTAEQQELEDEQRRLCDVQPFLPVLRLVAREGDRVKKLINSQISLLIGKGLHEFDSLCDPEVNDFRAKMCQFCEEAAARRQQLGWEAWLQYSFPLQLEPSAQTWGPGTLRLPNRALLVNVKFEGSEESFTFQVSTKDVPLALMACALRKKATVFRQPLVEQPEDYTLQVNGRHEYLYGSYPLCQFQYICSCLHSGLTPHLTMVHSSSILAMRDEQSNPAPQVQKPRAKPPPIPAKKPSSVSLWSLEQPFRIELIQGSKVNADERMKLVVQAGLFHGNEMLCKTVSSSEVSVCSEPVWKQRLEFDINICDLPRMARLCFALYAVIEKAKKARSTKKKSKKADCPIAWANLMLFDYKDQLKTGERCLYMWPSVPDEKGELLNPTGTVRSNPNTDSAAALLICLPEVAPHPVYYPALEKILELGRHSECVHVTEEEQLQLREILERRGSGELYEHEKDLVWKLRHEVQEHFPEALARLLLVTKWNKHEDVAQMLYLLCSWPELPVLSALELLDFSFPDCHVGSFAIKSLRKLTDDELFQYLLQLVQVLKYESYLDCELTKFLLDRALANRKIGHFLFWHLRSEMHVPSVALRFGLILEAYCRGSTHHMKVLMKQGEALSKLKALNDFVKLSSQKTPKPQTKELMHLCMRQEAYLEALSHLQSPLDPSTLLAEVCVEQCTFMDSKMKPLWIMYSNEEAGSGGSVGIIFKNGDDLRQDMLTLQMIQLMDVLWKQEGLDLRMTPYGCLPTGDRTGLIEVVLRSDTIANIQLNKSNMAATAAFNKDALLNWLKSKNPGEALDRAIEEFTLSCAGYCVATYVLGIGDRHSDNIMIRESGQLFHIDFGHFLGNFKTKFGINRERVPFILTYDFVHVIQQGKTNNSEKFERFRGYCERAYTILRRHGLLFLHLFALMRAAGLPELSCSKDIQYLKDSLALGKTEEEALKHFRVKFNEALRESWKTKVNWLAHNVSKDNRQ
T1 sequence (P27986 whole entry partner): as the sequence (P27986 whole entry partner) above
T4 sequence (P48736 whole entry): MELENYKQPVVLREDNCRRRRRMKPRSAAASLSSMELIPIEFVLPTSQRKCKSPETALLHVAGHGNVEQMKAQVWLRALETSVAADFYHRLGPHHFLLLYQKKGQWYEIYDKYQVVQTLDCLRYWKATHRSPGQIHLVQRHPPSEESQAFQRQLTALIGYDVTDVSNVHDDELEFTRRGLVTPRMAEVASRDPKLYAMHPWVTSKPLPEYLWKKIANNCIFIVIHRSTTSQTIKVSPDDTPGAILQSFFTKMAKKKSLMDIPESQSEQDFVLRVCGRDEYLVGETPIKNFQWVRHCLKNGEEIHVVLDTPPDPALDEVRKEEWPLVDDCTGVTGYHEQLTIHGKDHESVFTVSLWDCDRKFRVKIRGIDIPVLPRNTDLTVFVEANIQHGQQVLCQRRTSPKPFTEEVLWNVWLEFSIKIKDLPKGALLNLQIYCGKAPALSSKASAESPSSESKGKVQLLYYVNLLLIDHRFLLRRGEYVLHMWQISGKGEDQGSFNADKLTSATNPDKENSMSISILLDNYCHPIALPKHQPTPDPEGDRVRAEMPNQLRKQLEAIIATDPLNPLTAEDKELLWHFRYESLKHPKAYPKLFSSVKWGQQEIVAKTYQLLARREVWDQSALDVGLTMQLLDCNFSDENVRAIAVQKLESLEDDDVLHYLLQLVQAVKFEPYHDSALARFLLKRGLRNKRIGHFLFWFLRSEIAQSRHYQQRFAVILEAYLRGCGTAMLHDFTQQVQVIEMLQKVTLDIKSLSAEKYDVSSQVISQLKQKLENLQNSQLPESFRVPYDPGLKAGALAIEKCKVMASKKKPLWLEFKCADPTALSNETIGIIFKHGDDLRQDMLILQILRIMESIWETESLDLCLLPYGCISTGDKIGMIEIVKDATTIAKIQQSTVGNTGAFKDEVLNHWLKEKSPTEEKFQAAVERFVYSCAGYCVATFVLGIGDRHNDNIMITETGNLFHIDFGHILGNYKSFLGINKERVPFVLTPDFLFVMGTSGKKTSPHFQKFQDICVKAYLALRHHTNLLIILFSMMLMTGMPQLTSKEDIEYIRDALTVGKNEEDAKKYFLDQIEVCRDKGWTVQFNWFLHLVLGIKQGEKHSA

Take `c1cc(-c2nc(N3CCOCC3)c3oc4ncc(CN5CCCCC5)cc4c3n2)c2cc[nH]c2c1`: in data set [1] (setting [11]), the AUClast turned out to be 1245 ng·mL·h and the clearance came out at 66.1 mL/min/kg. The bioavailability in data set [1] (plasma, PO 10 mg/kg vs IV 5 mg/kg, male CD1 mouse) turned out to be 27.8%.

In the case of `O=S1(=O)CCCN(Cc2cnc3oc4c(N5CCOCC5)nc(-c5cccc6[nH]ccc56)nc4c3c2)CC1` [Example AA, 4-{[4-(1H-indol-4-yl)-6-(morpholin-4-yl)-8-oxa-3,5,10-triazatricyclo[7.4.0.0^2,^7]trideca-1(13),2(7),3,5,9,11-hexaen-12-yl]methyl}-1λ^6,4-thiazepane-1,1-dione], the pIC50 against PI3K p110δ [2] is ≥ 6.30; against PI3K p110β [3], ≥ 6.30; at PI3K p110α [4] it was ≥ 6.30; against PI3K p110γ [5] it was 6.00 to 6.30.

With `O=S1(=O)CC2(CN(Cc3cnc4oc5c(N6CCOCC6)nc(-c6cccc7[nH]ccc67)nc5c4c3)C2)C1` [Example AB, 6-{[4-(1H-Indol-4-yl)-6-(morpholin-4-yl)-8-oxa-3,5,10-triazatricyclo[7.4.0.0^2^,7]trideca-1(13),2(7),3,5,9,11-hexaen-12-yl]methyl}-2λ^6-thia-6-azaspiro[3.3]heptane-2,2-dione], the pIC50 on PI3K p110δ [2] was ≥ 6.30; against PI3K p110β [3] it was ≥ 6.30; at PI3K p110α [4], ≥ 6.30; at PI3K p110γ [5], 6.00 to 6.30.

As for `c1cc(-c2nc(N3CCOCC3)c3oc4ncc(CN5CCSC5)cc4c3n2)c2cc[nH]c2c1` [Example AC, 4-(1H-Indol-4-yl)-6-(morpholin-4-yl)-12-[(1,3-thiazolidin-3-yl)methyl]-8-oxa-3,5,10-triazatricyclo[7.4.0.0^2^,7]trideca-1(13),2(7),3,5,9,11-hexaene], the pIC50 at PI3K p110δ [2], against PI3K p110β [3], on PI3K p110α [4] and against PI3K p110γ [5] was ≥ 6.30 throughout.

With `CS(=O)(=O)CCNCc1cnc2oc3c(N4CCOCC4)nc(-c4cccc5[nH]ccc45)nc3c2c1` [Example AD, {[4-(1H-Indol-4-yl)-6-(morpholin-4-yl)-8-oxa-3,5,10-triazatricyclo[7.4.0.0^2^,7]trideca-1(13),2(7),3,5,9,11-hexaen-12-yl]methyl}(2-methanesulfonylethyl)amine], the pIC50 against PI3K p110δ [2], at PI3K p110β [3], on PI3K p110α [4] and against PI3K p110γ [5] was ≥ 6.30 in each case.

Take `CCS(=O)(=O)CCN(C)Cc1cnc2oc3c(N4CCOCC4)nc(-c4cccc5[nH]ccc45)nc3c2c1` [Example AE]: the pIC50 against PI3K p110δ [2], on PI3K p110β [3], at PI3K p110α [4] and at PI3K p110γ [5] was ≥ 6.30 in each case.

For `c1cc(-c2nc(N3CCOCC3)c3oc4ncc(CN5CCSCC5)cc4c3n2)c2cc[nH]c2c1` [Example AF, 4-(1H-indol-4-yl)-6-(morpholin-4-yl)-12-[(thiomorpholin-4-yl)methyl]-8-oxa-3,5,10-triazatricyclo[7.4.0.0^2^,7]trideca-1(13),2(7),3,5,9,11-hexaene], the pIC50 against PI3K p110δ [2] is ≥ 6.30; at PI3K p110β [3], ≥ 6.30; against PI3K p110α [4] it was ≥ 6.30; against PI3K p110γ [5], 6.00 to 6.30.

Consider `[O-][S+]1CCN(Cc2cnc3oc4c(N5CCOCC5)nc(-c5cccc6[nH]ccc56)nc4c3c2)CC1` [Example B, 4-{[4-(1H-Indol-4-yl)-6-(morpholin-4-yl)-8-oxa-3,5,10-triazatricyclo[7.4.0.0^2,7]trideca-1(13),2(7),3,5,9,11-hexaen-12-yl]methyl}-1λ^4-thiomorpholin-1-one], for which the pKi on PI3K p110δ [6] was ≥ 6.30. Further, the negative-log Ki (pKi) at PI3K p110β [7] was ≥ 6.30. The compound further gave a pKi at PI3K p110α [8] of 6.00 to 6.30. At PI3K p110γ [9], this compound had a pKi of 5.00 to 6.00. In [10] (setting [12]), the AUC(0-inf) was found to be 2940 ng·h/mL, the AUClast came out at 2802.91 ng·mL·h, the Cmax amounted to 5320 ng/mL and the clearance was 17 mL/min/kg. Also, the half-life in [10] (setting [12]) is 206 min. Besides, the Vd in data set [10] (IV, 3 mg/kg, male Balb/c mouse plasma, read-out: Vss) came to 1.44 L/kg. In addition, in [10] (setting [13]), the AUC(0-inf) was 7700 ng·h/mL, the AUC(0-t) turned out to be 7690 ng·h/mL, the Cmax amounted to 3830 ng/mL and the Tmax was 30 min. Further, the bioavailability in data set [10] (plasma, PO 10 mg/kg vs IV 3 mg/kg, male Balb/c mouse) turned out to be 82%.
